Measurements published in the NIST ThermoML archive (doi:10.1007/s10765-006-0033-6).

Assay: compressibility factor (dimensionless); xn = mol fraction of the nth substance listed
Conditions: Gas, Other PVT measurement

[N-]=[N+]=O [nitrous oxide] + FCF
Conditions	compressibility factor
343.77 K, 195.1 kPa, x1 = 0.4666	0.989
343.77 K, 207.5 kPa, x1 = 0.2266	0.9867
343.77 K, 226.8 kPa, x1 = 0.7567	0.9899
343.77 K, 290.7 kPa, x1 = 0.4666	0.985
343.77 K, 308.8 kPa, x1 = 0.2266	0.9814
343.77 K, 338.1 kPa, x1 = 0.7567	0.9863
343.77 K, 432.2 kPa, x1 = 0.4666	0.9788
343.77 K, 458 kPa, x1 = 0.2266	0.973
343.77 K, 502.9 kPa, x1 = 0.7567	0.9804
343.77 K, 640.2 kPa, x1 = 0.4666	0.9692
343.77 K, 676.2 kPa, x1 = 0.2266	0.9601
343.77 K, 745.4 kPa, x1 = 0.7567	0.9714
343.77 K, 943.3 kPa, x1 = 0.4666	0.9546
343.77 K, 991.2 kPa, x1 = 0.2266	0.9407
343.77 K, 1099.4 kPa, x1 = 0.7567	0.9577
343.77 K, 1379.1 kPa, x1 = 0.4666	0.9328
343.77 K, 1438.1 kPa, x1 = 0.2266	0.9123
343.77 K, 1609.7 kPa, x1 = 0.7567	0.9372
343.77 K, 1992.6 kPa, x1 = 0.4666	0.9008
343.77 K, 2053.8 kPa, x1 = 0.2266	0.8708
343.77 K, 2331.4 kPa, x1 = 0.7567	0.9073
343.77 K, 2828.1 kPa, x1 = 0.4666	0.8546
343.77 K, 2865.7 kPa, x1 = 0.2266	0.8122
343.77 K, 3321.8 kPa, x1 = 0.7567	0.8641
343.77 K, 3911.6 kPa, x1 = 0.4666	0.7901
343.77 K, 4620.1 kPa, x1 = 0.7567	0.8033
343.78 K, 138.3 kPa, x1 = 0.3594	0.9911
343.78 K, 187.9 kPa, x1 = 0.5908	0.9906
343.78 K, 206.4 kPa, x1 = 0.3594	0.9884
343.78 K, 280.1 kPa, x1 = 0.5908	0.9872
343.78 K, 307.3 kPa, x1 = 0.3594	0.9836
343.78 K, 416.8 kPa, x1 = 0.5908	0.9817
343.78 K, 456.2 kPa, x1 = 0.3594	0.9762
343.78 K, 618.2 kPa, x1 = 0.5908	0.9733
343.78 K, 674.7 kPa, x1 = 0.3594	0.9649
343.78 K, 912.7 kPa, x1 = 0.5908	0.9605
343.78 K, 991.4 kPa, x1 = 0.3594	0.9477
343.78 K, 1338.5 kPa, x1 = 0.5908	0.9415
343.78 K, 1443.8 kPa, x1 = 0.3594	0.9225
343.78 K, 1942.8 kPa, x1 = 0.5908	0.9134
343.78 K, 2073.7 kPa, x1 = 0.3594	0.8857
343.78 K, 2776.8 kPa, x1 = 0.5908	0.8726
343.78 K, 2917.9 kPa, x1 = 0.3594	0.833
343.78 K, 3879.6 kPa, x1 = 0.5908	0.8149
364.35 K, 199.4 kPa, x1 = 0.5606	0.9913
364.35 K, 297.5 kPa, x1 = 0.5606	0.9887
364.35 K, 443 kPa, x1 = 0.5606	0.9839
364.35 K, 657.8 kPa, x1 = 0.5606	0.9766
364.35 K, 972.8 kPa, x1 = 0.5606	0.9653
364.35 K, 1430 kPa, x1 = 0.5606	0.9485
364.35 K, 2083.5 kPa, x1 = 0.5606	0.9237
364.35 K, 2996.2 kPa, x1 = 0.5606	0.8879
364.35 K, 4225.6 kPa, x1 = 0.5606	0.837
364.36 K, 114.2 kPa, x1 = 0.2563	0.9933
364.36 K, 134.6 kPa, x1 = 0.33	0.9913
364.36 K, 170.5 kPa, x1 = 0.2563	0.9913
364.36 K, 197 kPa, x1 = 0.4559	0.9909
364.36 K, 200.9 kPa, x1 = 0.33	0.9892
364.36 K, 250.5 kPa, x1 = 0.7632	0.9908
364.36 K, 254.2 kPa, x1 = 0.2563	0.9878
364.36 K, 294 kPa, x1 = 0.4559	0.9885
364.36 K, 299.7 kPa, x1 = 0.33	0.9864
364.36 K, 373.5 kPa, x1 = 0.7632	0.9875
364.36 K, 378.2 kPa, x1 = 0.2563	0.9825
364.36 K, 437.3 kPa, x1 = 0.4559	0.9828
364.36 K, 445.6 kPa, x1 = 0.33	0.9802
364.36 K, 556.1 kPa, x1 = 0.7632	0.9827
364.36 K, 561.2 kPa, x1 = 0.2563	0.9743
364.36 K, 649 kPa, x1 = 0.4559	0.9748
364.36 K, 660.6 kPa, x1 = 0.33	0.9712
364.36 K, 824.6 kPa, x1 = 0.7632	0.974
364.36 K, 828.8 kPa, x1 = 0.2563	0.9619
364.36 K, 959 kPa, x1 = 0.4559	0.9628
364.36 K, 974.3 kPa, x1 = 0.33	0.9575
364.36 K, 1216 kPa, x1 = 0.2563	0.9432
364.36 K, 1218.7 kPa, x1 = 0.7632	0.9621
364.36 K, 1408 kPa, x1 = 0.4559	0.9448
364.36 K, 1425.9 kPa, x1 = 0.33	0.9367
364.36 K, 1766.2 kPa, x1 = 0.2563	0.9157
364.36 K, 1788.6 kPa, x1 = 0.7632	0.9438
364.36 K, 2047.8 kPa, x1 = 0.4559	0.9185
364.36 K, 2064.5 kPa, x1 = 0.33	0.9064
364.36 K, 2528.1 kPa, x1 = 0.2563	0.8762
364.36 K, 2598.5 kPa, x1 = 0.7632	0.9166
364.36 K, 2935.9 kPa, x1 = 0.4559	0.8802
364.36 K, 2942.6 kPa, x1 = 0.33	0.8636
364.36 K, 3725.1 kPa, x1 = 0.7632	0.8782
364.36 K, 4122.8 kPa, x1 = 0.4559	0.8262
364.36 K, 5229 kPa, x1 = 0.7632	0.824
